Measured values taken from patent US20240069044A1, “METHOD FOR DIAGNOSING A PREDISPOSITION OF A LIVING BEING TO DEVELOP THROMBOCYTOPENIA” (priority 2021, published 2024).

Tests used:
[1] = system: washed platelets from healthy donors; test: Antibody-mediated procoagulant platelets (CD62p/PS positive) by flow cytometry, VITT sera; format: cell-based; settings: for FI CD62p/PS positive PLTs: VITT sera with washed platelets, 0.2 IU/mL LMWH, high concentration UFH, mAb IV.3, high concentrations of IgG, PF4 or Spike-RBD, sera alone 22.94±6.14
[2] = system: platelets from healthy donors; test: IgG binding to platelets by flow cytometry after incubation with VITT sera; format: cell-based
[3] = system: washed platelets from healthy donors; test: Procoagulant platelets induced by HIT patient sera, washed platelets, flow cytometry; format: cell-based; settings: for generation of procoagulant platelets by patient sera in the presence of the additive: HIT, washed platelets (FIG. 8) or PRP (FIG. 9), 0.2 IU/mL LMWH, high concentration UFH, PF4, IV.3, result in words
Experimental: Prior to usage, all sera were heat-inactivated at 56° C. for 30 min, followed by a sharp centrifugation step at 5,000 g. The supernatant was collected in a fresh tube. For determination of procoagulant platelets, 5 μL serum was incubated with 25 μL washed platelets ([…]) for 1 h under rotating conditions at RT. Where indicated, cell suspensions were preincubated with PF4 (10 μg/ml) and Heparin (0.2 or 100 IU/ml). Afterwards, samples were washed once (7 min, 650 g, RT, without brake) and gently resuspended in 75 μL of phosphate-buffered saline (PBS, Biochrom, Berlin, Germany). Platelets were then stained with Annexin V-FITC and CD62-APC (Immunotools, Friesoythe Germany) and directly analyzed by flow cytometry (FC). Test results were determined as fold increase of the percentage of double PS/CD62p positive events in platelets upon incubation with patients' sera compared to the baseline.
37.5 μl wPLTs/PRP were supplemented with 1 μl of 10 IUs heparin (final concentration 0.2 IUs) or 1 μl of 5000 IUs heparin (final concentration 100 IUs) and 5 μL serum/IgG from HIT patients or control serum/IgG. Samples were filled up with PBS to a final volume of 50 μl and incubated for 1 hour under rotating conditions at RT. Afterwards, 5 μl of the PLT suspension were transferred into a final volume of 100 μL of Hank's balanced salt solution (HBSS) containing 137 mM NaCl, 1.25 mM CaCl2), 5.5 mM glucose, [Carl-Roth, Karlsruhe, Germany]) and incubated with 1 μL anti-CD62p-APC (BD, San Jose, USA), 1 μL Annexin-FITC (Immunotools, Friesoythe, Germany) and 2 μL anti-CD42a-PerCP (BD, San Jose, USA) for 30 min at RT in the dark. PLTs that were treated with thrombin receptor activating peptide (TRAP-6, [10 μM, 30 min at RT]) and ionomycin [5 μM, 15 min at RT] (both Sigma-Aldrich, St. Louis, USA) served as positive controls. Afterwards, PLTs were resuspended with HBSS to a final volume of 500 μL and immediately assessed via flow cytometry ([FC]), Navios, Beckman-Coulter, Brea, USA).
To investigate the mechanisms of HIT antibody-induced changes on PLTs, […] wPLTs/PRP were pretreated with Fc-gamma-RIIA blocking monoclonal antibody (moAb) anti-CD32 (moAb IV.3; Stemcell™ technologies, Vancouver, Canada) or a monoclonal isotype control ([SC-2025] Santa Cruz Biotechnology, Dallas, USA) for 30 min at RT prior to HIT serum/IgG treatment.

[4] = system: PRP from healthy individuals; test: Procoagulant platelets in platelet rich plasma (PRP) with patient sera/HIT IgG, flow cytometry; format: cell-based; settings: for procoagulant PLT formation by HIT IgG fractions: PRP
Experimental: IgG fractions were isolated from HIT as well as from control sera by the use of a commercially available IgG-purification-kit (Melon™-Gel IgG Spin Purification Kit, Thermo Fisher Scientific, Waltham, USA) as recommended by the manufacturers. In brief, heat inactivated serum was diluted 1:10 in purification buffer and incubated with the kit specific Gel IgG Purification Support over four cycles for 10 min. Subsequently, periodically performed centrifugation steps through a 10 μm pore size filter tube were performed for 1 min at 5000×g. The flow throw was collected into 100 kDa pore sized centrifugal filters (Amicon Ultra-4, Merck Millipore, Cork, Ireland) with subsequent concentration to the initial volume of the used serum sample via centrifugation (10-15 min, 2000×g, 4° C., with brake). IgG concentrations were measured by excitation using a NanoDrop One at a wavelength of […] (VWR, Bruchsal, Germany).
For determination of procoagulant platelets in PRP, sera were prepared as described above. For PRP preparation, venous blood from healthy individuals was withdrawn into vacutainers containing sodium citrate 0.105 M (3.2%) (BD, Plymouth, UK) and allowed to rest for 20 min at RT. PRP was prepared by centrifugation (20 min, 120 g, RT) and adjusted with autologous platelet poor plasma (PPP, [10 min, 2000 g, RT]) to a PLT count of 300×10^6/ml. […] Afterwards, samples were processed as described for washed PLTs and analysed by flow cytometry (FC). Test results were determined as fold increase of the percentage of double PS/CD62p positive events in platelets upon incubation with patients' sera compared to the baseline.
37.5 μl wPLTs/PRP were supplemented with 1 μl of 10 IUs heparin (final concentration 0.2 IUs) or 1 μl of 5000 IUs heparin (final concentration 100 IUs) and 5 μL serum/IgG from HIT patients or control serum/IgG. […] Afterwards, PLTs were resuspended with HBSS to a final volume of 500 μL and immediately assessed via flow cytometry ([FC]), Navios, Beckman-Coulter, Brea, USA).

[5] = system: washed platelets from healthy donors; test: Heparin induced platelet activation assay (HIPA) with modifications, VITT sera; format: cell-based; settings: for platelet activation by VITT sera in the presence of the additive: result in words
Experimental: (§1) A commercially available IgG-Enzyme Immune Assay (EIA) was used in accordance to manufacturer's instructions (Hyphen Biomed, Neuville-sur-Oise, France). Per manufacturer's recommendations, a sample was considered reactive if the optical density (OD) was ≥0.500. The ability of sera to activate platelets was tested using the functional assay heparin induced platelet aggregation assay (HIPA) as previously described. In brief, serum was tested with washed platelets (wPLTs) from four different healthy donors in the absence (buffer alone) or in the presence of unfractionated heparin (0.2 IU/mL and 100 IU/mL, [Ratiopharm, Ulm, Germany]). Reactions were placed in microtiter wells containing spherical stir bars and stirred at approximately 500 revolutions per minute (rpm). Wells were examined optically at five-minutes (min) interval for loss of turbidity. A serum was considered reactive (positive) if a shift from turbidity to transparency occurred within 30 min in at least two platelet suspensions. Observation time was 45 min. Each test included a diluted serum from a patient with HIT as a weak positive control, collagen (5 μg/mL) as strong positive control and a serum from a healthy donor as a negative control.
To investigate the ability of patients sera to activate platelets, the HIPA assay was used with several modifications. Sera were incubated with washed platelets in the presence of I) buffer, II) 0.2 IU/mL LMWH, III) 100 IU/mL UFH, IV) an Fc gamma receptor IIa (FcγRIIA)-blocking monoclonal antibody (mAb IV.3), VI) 30 mg/mL IVIG, VII) 25 μg/mL PF4, VIII) 50 μg/mL Spike-RBD, IX) PF4/Spike-RBD complexes, X) PF4+RBD or XI) ChAdOx1 nCoV-19 (XII). Conditions with PF4 and RBD were also repeated in the presence of high concentration of heparin (100 IU/mL UFH). […] (FIG. 5B). […] Antibody-mediated platelet activation was inhibited when low molecular weight heparin (LMWH) was added at low concentrations by testing three sera.

[6] = molecular target: T1, PF4/heparin complexes (Homo sapiens, UniProt P02776); test: IgG PF4/heparin EIA with sera from VITT patients; format: binding; settings: VITT sera (8/8), in the presence of high concentration of heparin; without: 2.591±0.642; p<0.0001
T1 construct: purchased Hyphen Biomed, Neuville-sur-Oise, France
T1 sequence (P02776 32-101): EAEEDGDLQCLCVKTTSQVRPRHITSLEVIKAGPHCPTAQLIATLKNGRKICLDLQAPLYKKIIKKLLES
Experimental: as §1

Substance	FI CD62p/PS positive PLTs [1] [fold increase]	procoagulant phenotype induced by diluted VITT sera ([1]; diluted sera (from 1:64), result in words)	change in IgG binding to platelets in the presence of the additive ([2]; result in words)	generation of procoagulant platelets by patient sera in the presence of the additive [3]	procoagulant phenotype, sera from HIPA negative patients with PRP ([4]; in presence of PF4, when treated with 0.2 IU/ml Heparin (LMWH))	Median time to aggregate ([5]; VITT sera with washed platelets, 0.2 IU/mL LMWH, 25 μg/mL PF4, mAb IV.3 or 30 mg/mL IVIG, buffer alone 5 min, observation time 45 min) [min]	platelet activation by VITT sera in the presence of the additive [5]	FI of MFI IgG binding to platelets ([2]; heparin at high concentrations (100 IU/ml), without heparin 4.39±1.15, p 0.016) [fold increase]	FI of MFI of IgG binding to platelets ([2]; heparin at low concentrations (0.2 U/mL), without heparin 4.39±1.15, p 0.688) [fold increase]	CD62p/PS positive PLTs, mean %±SEM ([3]; HIT sera with wPLTs, supratherapeutic (Hep. 100 IUs) doses of heparin) [%]	CD62p/PS positive PLTs, mean percent [mean %]±SEM ([3]; HIT sera with wPLTs, therapeutic (0.2 IUs) heparin, HC sera 1±0) [%]	mean optical density [OD] of IgG antibodies against PF4/heparin complexes [6] [OD]	procoagulant PLT formation by HIT IgG fractions ([4]; supratherapeutic (100 IUs) doses of heparin)	procoagulant PLT formation by HIT IgG fractions ([4]; therapeutic doses (0.2 IUs) heparin)
PF4: small cytokine of the CXC chemokine family released from alpha-granules of activated platelets	37.07±23.73	only in the presence e of PF4	Only one serum showed increased binding	increase of procoagulant platelets	Strong increase	5	only in the presence e of PF4	–	–	–	–	–	–	–
heparin	1.92±0.96	–	–	completely inhibited	–	–	All reactions were inhibited	1.51±0.66	3.60±2.01	1.18±0.28	44.99±6.26	0.176±0.073	not observed	showed the capability to induce procoagulant PLTs
